Reference: US20230151025A1, “SUBSTITUTED THIAZOLOPYRIDINES, SALTS THEREOF AND THEIR USE AS HERBICIDALLY ACTIVE SUBSTANCES” (Bayer Aktiengesellschaft, priority 2020, published 2023)

Columns and labels:
Assay type in all cases: in vivo
[1] = system: Alopecurus myosuroides (ALOMY); assay: Herbicidal pre-emergence action (A), 1280 g/ha; conditions: visual grading after ca. 3 weeks vs untreated controls, 100% = plants have died off, 0% = as control plants
How it was run: (§1)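 Visual percent damage scored about 3 weeks after treatment relative to untreated pots (100% = complete kill, 0% = no effect). Compounds, as wettable powder or emulsifiable concentrate plus 0.5% additive in 600 l water/ha, were applied to the soil surface over freshly sown seeds in sandy loam, greenhouse-grown.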

[2] = system: Kochia scoparia (KCHSC; Bassia scoparia); assay: Herbicidal pre-emergence action (A), 1280 g/ha; conditions: visual grading after ca. 3 weeks vs untreated controls
How it was run: as §1

[3] = system: Lolium rigidum (LOLRI); assay: Herbicidal pre-emergence action (A), 1280 g/ha; conditions: visual grading after ca. 3 weeks vs untreated controls, 100% = plants have died off, 0% = as control plants
How it was run: as §1

[4] = system: Matricaria inodora (MATIN); assay: Herbicidal pre-emergence action (A), 1280 g/ha; conditions: visual grading after ca. 3 weeks vs untreated controls
How it was run: as §1

[5] = system: Stellaria media (STEME); assay: Herbicidal pre-emergence action (A), 1280 g/ha; conditions: visual grading after ca. 3 weeks vs untreated controls
How it was run: as §1

[6] = system: Matricaria inodora (MATIN); assay: Herbicidal post-emergence action (B), 1280 g/ha; conditions: rated visually after about 3 weeks vs untreated controls
How it was run: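 Compounds formulated as wettable powder or emulsion concentrate, with 0.5% additive, sprayed at 600 l/ha onto one-leaf-stage plants grown in sandy loam for 2 to 3 weeks. Damage rated visually against untreated plants roughly 3 weeks later; 0% = like control, 100% = plants died.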

[7] = system: Matricaria inodora (MATIN); assay: Herbicidal pre-emergence action (C), 320 g/ha; conditions: ca. 3 weeks
How it was run: (§2)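 Greenhouse pre-emergence trial with compounds sprayed onto soil above sown seeds in sandy loam (aqueous WP or EC, 0.5% additive, 600 l water/ha); effect scored by eye at roughly 3 weeks as percent damage versus controls.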

[8] = system: Polygonum convolvulus (POLCO); assay: Herbicidal pre-emergence action (C), 320 g/ha; conditions: ca. 3 weeks
How it was run: as §2

[9] = system: Viola tricolor (VIOTR); assay: Herbicidal pre-emergence action (C), 320 g/ha; conditions: ca. 3 weeks
How it was run: as §2

[10] = system: Alopecurus myosuroides (ALOMY); assay: Herbicidal post-emergence action (D), 320 g/ha; conditions: ca. 3 weeks
How it was run: (§3)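 Weeds sown in sandy loam and greenhouse-grown for 2 to 3 weeks, then sprayed at single-leaf stage with WP or EC formulations in water plus 0.5% additive at 600 l water/ha. After ca. 3 weeks, injury scored visually versus untreated controls: 0% = as control, 100% = plants dead.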

[11] = system: Amaranthus retroflexus (AMARE); assay: Herbicidal post-emergence action (D), 320 g/ha; conditions: ca. 3 weeks
How it was run: as §3

[12] = system: Echinochloa crus-galli (ECHCG); assay: Herbicidal post-emergence action (D), 320 g/ha; conditions: ca. 3 weeks
How it was run: as §3

[13] = system: Setaria viridis (SETVI); assay: Herbicidal post-emergence action (D), 320 g/ha; conditions: ca. 3 weeks
How it was run: as §3

[14] = system: Polygonum convolvulus (POLCO); assay: Herbicidal post-emergence action (D), 320 g/ha; conditions: ca. 3 weeks
How it was run: as §3

[15] = system: Veronica persica (VERPE); assay: Herbicidal post-emergence action (D), 320 g/ha; conditions: ca. 3 weeks
How it was run: as §3

[16] = system: Abutilon theophrasti (ABUTH); assay: Herbicidal pre-emergence action (C), 320 g/ha; conditions: ca. 3 weeks
How it was run: as §2

[17] = system: Avena fatua; assay: Herbicidal pre-emergence action (C), 320 g/ha; conditions: ca. 3 weeks
How it was run: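 Weed and crop seeds sown in sandy loam; WP or EC formulations applied pre-emergence to the soil surface as aqueous suspension/emulsion with 0.5% additive at 600 l water/ha. Greenhouse-grown under optimum conditions; damage visually scored after ca. 3 weeks versus untreated controls (0% = as control, 100% = plants dead).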

[18] = system: Digitaria sanguinalis (DIGSA); assay: Herbicidal post-emergence action (D), 320 g/ha; conditions: ca. 3 weeks
Source text: Seeds of mono- and dicotyledonous weed plants and crop plants were sown, in plastic or organic planting pots, in sandy loam, covered with soil and grown in a greenhouse under controlled growth conditions. 2 to 3 weeks after sowing, the test plants were sprayed in the single-leaf stage. The compounds according to the invention, formulated in form of wettable powders (WP) or as emulsifiable concentrates (EC), were sprayed onto the green plant parts as aqueous suspension or emulsion, with the addition of 0.5% of an additive, at an application rate of 600 l of water/ha (converted). The test plants were placed in the greenhouse for ca. 3 weeks under optimum growth conditions, and then the effect of the preparations was assessed visually in comparison with untreated controls (herbicidal effect in percent (%): 100% effect=plants have died off, 0% effect=as control plants).
Tables D1 to D13 below show the effects of selected compounds of the general formula (I) according to table 1 on various harmful plants and an application rate corresponding to 320 g/ha obtained by the experimental procedure mentioned above.

[19] = system: Abutilon theophrasti (ABUTH); assay: Herbicidal post-emergence action (D), 320 g/ha; conditions: ca. 3 weeks
How it was run: as §3

[20] = system: Lolium rigidum (LOLRI); assay: Herbicidal post-emergence action (D), 320 g/ha; conditions: ca. 3 weeks
How it was run: as §3

Cc1cc2scnc2nc1-c1ccsc1C [Example I-194]
ALOMY, herbicidal effect in percent (%) [1]: 100% | herbicidal effect KCHSC [2]: 100% | LOLRI, herbicidal effect in percent (%) [3]: 100% | herbicidal effect MATIN [4]: 100% | herbicidal effect STEME [5]: 100% | herbicidal activity MATIN [6]: 100% | herbicidal effect MATIN [7]: 90% | herbicidal effect POLCO [8]: 90% | herbicidal effect VIOTR [9]: 90% | herbicidal effect ALOMY [10]: 90% | herbicidal effect AMARE [11]: 80% | herbicidal effect ECHCG [12]: 90% | herbicidal effect SETVI [13]: 80%

CCc1cc2scnc2nc1-c1ccc(F)cc1F [Example I-030]
ALOMY, herbicidal effect in percent (%) [1]: 100% | herbicidal effect KCHSC [2]: 100% | LOLRI, herbicidal effect in percent (%) [3]: 100% | herbicidal effect MATIN [4]: 100% | herbicidal effect STEME [5]: 90% | herbicidal effect POLCO [8]: 80% | herbicidal effect ALOMY [10]: 80% | herbicidal effect POLCO [14]: 90% | herbicidal effect VERPE [15]: 90%

Cc1cc2scnc2nc1-c1sccc1C [Example I-143]
ALOMY, herbicidal effect in percent (%) [1]: 100% | herbicidal effect KCHSC [2]: 90% | LOLRI, herbicidal effect in percent (%) [3]: 100% | herbicidal effect MATIN [4]: 90% | herbicidal effect STEME [5]: 90% | herbicidal activity MATIN [6]: 100% | herbicidal effect ABUTH [16]: 80% | herbicidal effect MATIN [7]: 90% | herbicidal effect AVEFA [17]: 90% | herbicidal effect ALOMY [10]: 90% | herbicidal effect AMARE [11]: 80% | herbicidal effect ECHCG [12]: 80% | herbicidal effect SETVI [13]: 80% | herbicidal effect VERPE [15]: 80%

Cc1cc2scnc2nc1-c1sccc1Cl [Example I-137]
ALOMY, herbicidal effect in percent (%) [1]: 100% | herbicidal effect KCHSC [2]: 100% | LOLRI, herbicidal effect in percent (%) [3]: 100% | herbicidal effect MATIN [4]: 90% | herbicidal effect STEME [5]: 100% | herbicidal activity MATIN [6]: 90% | herbicidal effect MATIN [7]: 90% | herbicidal effect VIOTR [9]: 90% | herbicidal effect AVEFA [17]: 80% | herbicidal effect ALOMY [10]: 90% | herbicidal effect AMARE [11]: 90% | herbicidal effect ECHCG [12]: 90% | herbicidal effect POLCO [14]: 80% | herbicidal effect VERPE [15]: 80% | herbicidal effect DIGSA [18]: 90%

COc1ccccc1-c1nc2ncsc2cc1C [Example I-124]
ALOMY, herbicidal effect in percent (%) [1]: 100% | herbicidal effect KCHSC [2]: 100% | LOLRI, herbicidal effect in percent (%) [3]: 100% | herbicidal effect MATIN [4]: 100% | herbicidal effect STEME [5]: 100% | herbicidal effect MATIN [7]: 80% | herbicidal effect VIOTR [9]: 90% | herbicidal effect ALOMY [10]: 90% | herbicidal effect ECHCG [12]: 80% | herbicidal effect VERPE [15]: 90%

Fc1ccccc1-c1nc2ncsc2cc1Cl [Example I-017]
ALOMY, herbicidal effect in percent (%) [1]: 100% | herbicidal effect KCHSC [2]: 100% | LOLRI, herbicidal effect in percent (%) [3]: 100% | herbicidal effect MATIN [4]: 100% | herbicidal effect STEME [5]: 100% | herbicidal effect ABUTH [16]: 80% | herbicidal effect MATIN [7]: 90% | herbicidal effect POLCO [8]: 90% | herbicidal effect AVEFA [17]: 90% | herbicidal effect ABUTH [19]: 80% | herbicidal effect ALOMY [10]: 90% | herbicidal effect AMARE [11]: 100% | herbicidal effect ECHCG [12]: 80% | herbicidal effect POLCO [14]: 90% | herbicidal effect SETVI [13]: 80% | herbicidal effect VERPE [15]: 90%

CCc1cc2scnc2nc1-c1ccccc1C [Example I-093]
ALOMY, herbicidal effect in percent (%) [1]: 100% | herbicidal effect KCHSC [2]: 100% | LOLRI, herbicidal effect in percent (%) [3]: 100% | herbicidal effect MATIN [4]: 100% | herbicidal effect STEME [5]: 100% | herbicidal activity MATIN [6]: 100% | herbicidal effect MATIN [7]: 90% | herbicidal effect AVEFA [17]: 80% | herbicidal effect ALOMY [10]: 90% | herbicidal effect AMARE [11]: 90% | herbicidal effect LOLRI [20]: 80% | herbicidal effect VERPE [15]: 90%

Fc1ccccc1-c1nc2ncsc2cc1I [Example I-188]
ALOMY, herbicidal effect in percent (%) [1]: 100% | herbicidal effect KCHSC [2]: 90% | LOLRI, herbicidal effect in percent (%) [3]: 100% | herbicidal effect MATIN [4]: 90% | herbicidal effect STEME [5]: 90% | herbicidal activity MATIN [6]: 90% | herbicidal effect ABUTH [16]: 80% | herbicidal effect POLCO [8]: 80% | herbicidal effect AVEFA [17]: 100% | herbicidal effect ALOMY [10]: 90% | herbicidal effect AMARE [11]: 90% | herbicidal effect ECHCG [12]: 100% | herbicidal effect POLCO [14]: 80% | herbicidal effect SETVI [13]: 100% | herbicidal effect VERPE [15]: 90%

CCc1cc2scnc2nc1-c1cccc(F)c1 [Example I-029]
ALOMY, herbicidal effect in percent (%) [1]: 100% | herbicidal effect KCHSC [2]: 100% | LOLRI, herbicidal effect in percent (%) [3]: 100% | herbicidal effect MATIN [4]: 90% | herbicidal effect STEME [5]: 100% | herbicidal effect ALOMY [10]: 90% | herbicidal effect ECHCG [12]: 90% | herbicidal effect POLCO [14]: 90% | herbicidal effect VERPE [15]: 90%

CCc1cc2scnc2nc1-c1ccccc1F [Example I-023]
ALOMY, herbicidal effect in percent (%) [1]: 100% | herbicidal effect KCHSC [2]: 100% | LOLRI, herbicidal effect in percent (%) [3]: 100% | herbicidal effect MATIN [4]: 100% | herbicidal effect STEME [5]: 90% | herbicidal effect ABUTH [16]: 80% | herbicidal effect MATIN [7]: 90% | herbicidal effect POLCO [8]: 80% | herbicidal effect VIOTR [9]: 80% | herbicidal effect ABUTH [19]: 80% | herbicidal effect ALOMY [10]: 90% | herbicidal effect AMARE [11]: 100% | herbicidal effect ECHCG [12]: 90% | herbicidal effect POLCO [14]: 90% | herbicidal effect SETVI [13]: 80% | herbicidal effect VERPE [15]: 90% | herbicidal effect DIGSA [18]: 80%

Fc1ccccc1-c1nc2ncsc2cc1C1CC1 [Example I-102]
ALOMY, herbicidal effect in percent (%) [1]: 100% | herbicidal effect KCHSC [2]: 100% | LOLRI, herbicidal effect in percent (%) [3]: 100% | herbicidal effect MATIN [4]: 100% | herbicidal effect STEME [5]: 90% | herbicidal activity MATIN [6]: 90% | herbicidal effect VIOTR [9]: 80% | herbicidal effect AMARE [11]: 80% | herbicidal effect POLCO [14]: 80% | herbicidal effect SETVI [13]: 80% | herbicidal effect VERPE [15]: 80%

Cc1cc2scnc2nc1-c1ccc(F)cc1F [Example I-122]
ALOMY, herbicidal effect in percent (%) [1]: 100% | herbicidal effect KCHSC [2]: 100% | LOLRI, herbicidal effect in percent (%) [3]: 100% | herbicidal effect MATIN [4]: 100% | herbicidal effect STEME [5]: 100% | herbicidal effect AVEFA [17]: 100% | herbicidal effect ALOMY [10]: 90% | herbicidal effect AMARE [11]: 80% | herbicidal effect ECHCG [12]: 80% | herbicidal effect POLCO [14]: 90% | herbicidal effect VERPE [15]: 90%

Cc1cc2scnc2nc1-c1cccc(F)c1 [Example I-003, 5-(3-fluorophenyl)-6-methyl-thiazolo[4,5-b]pyridine]
ALOMY, herbicidal effect in percent (%) [1]: 90% | herbicidal effect KCHSC [2]: 100% | LOLRI, herbicidal effect in percent (%) [3]: 100% | herbicidal effect MATIN [4]: 90% | herbicidal effect STEME [5]: 90% | herbicidal effect POLCO [8]: 80% | herbicidal effect VIOTR [9]: 80% | herbicidal effect ALOMY [10]: 90% | herbicidal effect AMARE [11]: 80% | herbicidal effect SETVI [13]: 80% | herbicidal effect VERPE [15]: 90%
